Test results taken from US10653688B2, “6-(6-membered heteroaryl and aryl)isoquinolin-3-yl carboxamides and preparation and use thereof” (Samumed, LLC, priority 2017, dated 2020).
pEC50: −log10 of the molar value. Where two headings read alike, the source gives them in different places.

What was measured:
[1] = test system: Wnt activity (SW480 colon carcinoma cells stably expressing the Sp5-Luc reporter gene); experiment: Wnt activity screening assay (Sp5-Luc reporter gene assay); type: cell-based, human; details: Homo sapiens; for pEC50: 36 to 48 hours; for inhibition at 10 µM: read-out: percent inhibition at 10 μM (given for EC50 >10 μM), 10 μM
Excerpt: The screening assay for Wnt activity is described as follows. Reporter cell lines can be generated by stably transducing cancer cell lines (e.g., colon cancer) or primary cells (e.g., IEC-6 intestinal cells) with a lentiviral construct that includes a Wnt-responsive promoter driving expression of the firefly luciferase gene.
SW480 colon carcinoma cells were transduced with a lentiviral vector expressing luciferase with a human Sp5 promoter consisting of a sequence of eight TCF/LEF binding sites. SW480 cells stably expressing the Sp5-Luc reporter gene and a hygromycin resistance gene were selected by treatment with 150 μg/mL of hygromycin for 7 days. These stably transduced SW480 cells were expanded in cell culture and used for all further screening activities. […] For Sp5-Luc reporter gene assays, the cells were plated at 4,000 cells/well in 384-well plates with a DMEM medium containing 1% fetal bovine serum, and 1% Penicillin-Streptomycin and incubated for 36 to 48 hours at 37° C. and 5% CO2. Following incubation, 15 μl of BriteLite Plus luminescence reagent (Perkin Elmer) was added to each well of the 384-well assay plates. The plates were placed on an orbital shaker for 2 min and then luminescence was quantified using the Envision (Perkin Elmer) plate reader. Readings were normalized to DMSO only treated cells, and normalized activities were utilized for EC50 calculations using the dose-response log (inhibitor) vs. response-variable slope (four parameters) nonlinear regression feature available in GraphPad Prism 5.0 (or Dotmatics).

recombinant GSK3β kinase = recombinant GSK3β kinase (Homo sapiens (Human), UniProt P49841); experiment: GSK3β kinase assay (Ser/Thr 09 peptide Z-lyte, FRET); type: biochemical;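 further: FRET read-out as coumarin over fluorescein emission ratio, compounds incubated one hour at room temperature, IC50 from dose-response curve fit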
Sequence of recombinant GSK3β kinase (P49841 whole entry): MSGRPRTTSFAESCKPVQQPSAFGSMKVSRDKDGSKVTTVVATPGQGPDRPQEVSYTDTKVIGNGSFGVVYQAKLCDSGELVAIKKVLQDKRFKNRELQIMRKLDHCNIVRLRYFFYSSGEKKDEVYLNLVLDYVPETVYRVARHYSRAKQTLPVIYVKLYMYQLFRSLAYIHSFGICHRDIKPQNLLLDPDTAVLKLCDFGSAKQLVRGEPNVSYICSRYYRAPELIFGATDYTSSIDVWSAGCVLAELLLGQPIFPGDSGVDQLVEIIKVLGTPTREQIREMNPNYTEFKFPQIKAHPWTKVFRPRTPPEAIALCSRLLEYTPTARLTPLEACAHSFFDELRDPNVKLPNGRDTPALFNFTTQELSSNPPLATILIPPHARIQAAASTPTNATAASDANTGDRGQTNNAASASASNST

[2] = test system: LL29 cells (primary human fibroblasts derived from IPF patients), α-smooth muscle actin; experiment: Inhibition of fibrotic process: TGF-β1-treated primary human fibroblasts, αSMA staining; type: cell-based; details: Homo sapiens, Fibroblast; for pEC50: 96 h, TGF-β1 20 ng/mL, 4 days, % cells positive for αSMA; for inhibition at 10 µM: read-out: percent inhibition at 10 μM (given for EC50 >10 μM), TGF-β1, αSMA, 10 μM;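 on all read-outs here: controls were TGF-β1-stimulated wells with DMSO vehicle as the positive reference and cells given DMSO alone as the negative reference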
Procedure: Representative compounds were screened using primary human fibroblasts (derived from IPF patients) treated with TGF-β1 to determine their ability to inhibit the fibrotic process.
Human Fibroblast Cell Culture:
Each compound was dissolved in DMSO as a 10 mM stock and used to prepare compound source plates. […] LL29 cells were plated at 1,500 cells/well in 70 μL/well F12 medium supplemented with 1% Fetal Bovine Serum. […] Wells treated with TGF-β1 and containing DMSO were used as positive control, and cells with only DMSO were negative control. Cells were incubated at 37° C. and 5% CO2 for 4 days. Following incubation for 4 days, SYTOX green nucleic acid stain (Life Technologies [Thermo Fisher Scientific]) was added to the wells at a final concentration of 1 μM and incubated at room temperature for 30 min. Cells were then fixed using 4% formaldehyde (Electron Microscopy Sciences), washed 3 times with PBS followed by blocking and permeabilization using 3% Bovine Serum Albumin (BSA; Sigma) and 0.3% Triton X-100 (Sigma) in PBS.

[3] = target: recombinant DYRK1A kinase (Homo sapiens (Human), UniProt Q13627); experiment: DYRK1A kinase assay (Ser/Thr 18 peptide Z-lyte, FRET)
[4] = test system: SW480 colon carcinoma cells; experiment: Cell viability assay (CellTiter-Glo); type: cell-based, human; details: Homo sapiens; for pEC50: 96 h, four days, CellTiter-Glo
Procedure: SW480 colon carcinoma cells were transduced with a lentiviral vector expressing luciferase with a human Sp5 promoter consisting of a sequence of eight TCF/LEF binding sites. SW480 cells stably expressing the Sp5-Luc reporter gene and a hygromycin resistance gene were selected by treatment with 150 μg/mL of hygromycin for 7 days. These stably transduced SW480 cells were expanded in cell culture and used for all further screening activities.
For the Cell Viability Assays, the cells were plated at 2,000 cells/well in 384-well plates with a DMEM medium containing 1% fetal bovine serum, and 1% Penicillin-Streptomycin and incubated for […] at 37° C. and 5% CO2. Eight replicates of DMSO-treated cells served as controls and cells treated with compound were performed in duplicate.
After incubation, 10 μL of CellTiter-Glo (Promega) was added to each well allowed to incubate for approximately 12 minutes. This reagent “results in cell lysis and generation of a luminescent signal proportional to the amount of ATP present. The amount of ATP is directly proportional to the number of cells present in culture, in agreement with previous reports. The CellTiter-Glo Assay generates a “glow-type” luminescent signal, produced by the luciferase reaction (Promega.com)”.

[5] = test system: IL-6 in human peripheral blood mononuclear cells (huPBMCs); experiment: IL-6 inhibition in LPS-stimulated human peripheral blood mononuclear cells (HTRF); type: cell-based; details: Homo sapiens, PBMC; for pEC50: LPS 50 ng/mL, 22 hours, IL-6 HTRF; for inhibition at 10 µM: read-out: percent inhibition at 10 μM (given for EC50 >10 μM), LPS, IL-6, 10 μM
Procedure: Human Peripheral Blood Mononuclear Cells:
Fresh Normal PB MNC (Catalog # PB001, AllCells, Alameda, Calif.) were shipped overnight at 4° C. and resuspended in Roswell Park Memorial Institute (RPMI) 1640 Medium, with GlutaMAX Supplement (Catalog #61870127, ThermoFisher Scientific, Waltham, Mass.) supplemented with 1% Penicillin-Streptomycin (Catalog #15140163, ThermoFisher Scientific, Waltham, Mass.) and 1% fetal bovine serum (FBS) (Catalog #16140089, ThermoFisher Scientific, Waltham, Mass.) assay media.
Fresh normal human peripheral blood mononuclear cells (huPBMCs) were resuspended in 1% FBS-RPMI assay media with 1% Penicillin-Streptomycin 1% to a cell concentration of 1×10e6 cells/mL. […] 50 ng/mL of Lipopolysaccharides from Escherichia coli 0111:B4 (Catalog # L5293-2ML, Sigma-Aldrich, St. Louis, Mo.) was added after 2 hours and cells were incubated for another 22 hours at 37° C.-5% CO2. After 22 hour incubation, a mixture of anti-IL6 XL665 and anti-IL-6 Cryptate diluted in reconstitution buffer (Catalog #62IL6PEC, Cisbio Inc., Bedford, Mass.) was added to each well. Following incubation for 3 hours at room temperature, Homogeneous Time-Resolved Fluorescence (HTRF) was measured using the Envision (Perkin Elmer, Shelton, Conn.) at 665 nm and […]. The ratio of fluorescence at 665 nm to 620 nm was used as a readout for IL-6 quantification. All samples were processed in duplicate. Readings were normalized to DMSO treated cells and normalized activities were utilized for EC50 calculations. EC50 was determined using software generated by Dotmatics Limited (Windhill Bishops Stortford Herts, UK) using the Levenberg-Marquardt 4 parameter fitting procedure with finite different gradients.

[6] = GSK3β kinase, head says EC50, method says IC50, ATP 46 μM
[7] = DYRK1A kinase, head says EC50, method says IC50, ATP 30 μM

Compound	pEC50 [1]	pEC50 (recombinant GSK3β kinase; [6])	pEC50 [3, 7]	pEC50 [4]	pEC50 [5]	pEC50 (recombinant GSK3β kinase)	pEC50 [3]	pEC50 [2]	inhibition at 10 µM [1] [%]	inhibition at 10 µM [2] [%]	inhibition at 10 µM ([4]; read-out: percent inhibition at 10 μM (given for EC50 >10 μM), 10 μM) [%]	inhibition at 10 µM [5] [%]
CC(C)N1CCC(Nc2cncc(-c3ccc4cnc(NC(=O)C5CCCC5)cc4c3)n2)CC1 [Compound 118, N-(6-(6-((1-Isopropylpiperidin-4-yl)amino)pyrazin-2-yl)isoquinolin-3-yl) cyclopentanecarboxamide]	6.08	7.11	9.00	5.93	6.03			6.83				
CC(C)Nc1cncc(-c2ccc3cnc(NC(=O)c4cn(C5CCN(CCF)CC5)nn4)cc3c2)n1 [Compound 95, 1-(1-(2-fluoroethyl)piperidin-4-yl)-N-(6-(6-(isopropylamino)pyrazin-2-yl)isoquinolin-3-yl)-1H-1,2,3-triazole-4-carboxamide]	7.47	5.16	8.70	5.98	6.68			7.04				
CN1CCC(Nc2cncc(-c3ccc4cnc(NC(=O)c5ccc(F)cc5)cc4c3)n2)CC1 [Compound 115, 4-fluoro-N-(6-(6-((1-methylpiperidin-4-yl)amino)pyrazin-2-yl)isoquinolin-3-yl)benzamide]	7.41			5.29	5.50	5.07	9.00	< 5.00		12.2		
O=C(Nc1cc2cc(-c3cncc(NC4CCNCC4)n3)ccc2cn1)C1CCC1 [Compound 105, N-(6-(6-(Piperidin-4-ylamino)pyrazin-2-yl)isoquinolin-3-yl) cyclobutanecarboxamide]	6.58			6.51	6.68	7.25	9.00	6.65				
NC1CN(c2cncc(-c3ccc4cnc(NC(=O)c5ccc(F)cc5)cc4c3)n2)C1 [Compound 122, N-(6-(6-(3-aminoazetidin-1-yl)pyrazin-2-yl)isoquinolin-3-yl)-4-fluorobenzamide]	5.21	< 5.00	7.96	5.05	5.50			< 5.00		4.8		
Nc1cncc(-c2ccc3cnc(NC(=O)c4ccc(OC5CCNCC5)cc4)cc3c2)c1 [Compound 37, N-(6-(5-Aminopyridin-3-yl)isoquinolin-3-yl)-4-(piperidin-4-yloxy) benzamide]	6.96	5.34	9.00	7.09	6.18			< 5.00		39.5		

Second part, led by results:

pEC50 [1]	pEC50 (recombinant GSK3β kinase; [6])	pEC50 [3, 7]	pEC50 [4]	pEC50 [5]	pEC50 (recombinant GSK3β kinase)	pEC50 [3]	Compound	pEC50 [2]	inhibition at 10 µM [1] [%]	inhibition at 10 µM [2] [%]	inhibition at 10 µM ([4]; read-out: percent inhibition at 10 μM (given for EC50 >10 μM), 10 μM) [%]	inhibition at 10 µM [5] [%]
< 5.00	< 5.00	5.98	6.14	5.47			O=C(Nc1cc2cc(-c3cccnc3)ccc2cn1)c1coc(C2CCNCC2)n1 [Compound 140, 2-(Piperidin-4-yl)-N-(6-(pyridin-3-yl)isoquinolin-3-yl)oxazole-4-carboxamide]	5.78	6.6			
5.46	< 5.00	6.16	< 5.00	< 5.00			CN1CCC(c2nc(C(=O)Nc3cc4cc(-c5cccnc5)ccc4cn3)co2)CC1 [Compound 142, 2-(1-Methylpiperidin-4-yl)-N-(6-(pyridin-3-yl)isoquinolin-3-yl)oxazole-4-carboxamide]	< 5.00		8.8	16.9	7.8
5.14	< 5.00	8.30	5.12	< 5.00			O=C(Nc1cc2cc(-c3cncc(OC4CNC4)n3)ccc2cn1)c1ccc(F)cc1 [Compound 125, N-(6-(6-(Azetidin-3-yloxy)pyrazin-2-yl)isoquinolin-3-yl)-4-fluorobenzamide]	< 5.00		43.6		4.5
5.38			5.47	< 5.00	< 5.00	7.19	CNc1ccc(-c2ccc3cnc(NC(=O)c4ccnc(N5CCN(C)CC5)c4)cc3c2)cn1 [Compound 40, N-(6-(6-(Methylamino)pyridin-3-yl)isoquinolin-3-yl)-2-(4-methylpiperazin-1-yl)isonicotinamide]	5.83				3.7
6.56	< 5.00	8.70	6.33	5.69			CC(C)Nc1cncc(-c2ccc3cnc(NC(=O)c4ccnc(N5CCN(C)CC5)c4)cc3c2)c1 [Compound 43, N-(6-(5-(Isopropylamino)pyridin-3-yl)isoquinolin-3-yl)-2-(4-methylpiperazin-1-yl)isonicotinamide]	6.66				
6.58	7.51	9.00	5.23	6.92			O=C(Nc1cc2cc(-c3cncc(NC4CCNCC4)n3)ccc2cn1)C1CCCC1 [Compound 107, N-(6-(6-(Piperidin-4-ylamino)pyrazin-2-yl)isoquinolin-3-yl) cyclopentanecarboxamide]	5.89				
6.70	7.42	9.00	6.12	6.42			CC(C)Nc1cncc(-c2ccc3cnc(NC(=O)C4CCNCC4)cc3c2)n1 [Compound 87, N-(6-(6-(Isopropylamino)pyrazin-2-yl)isoquinolin-3-yl)piperidine-4-carboxamide]	5.72				
6.34	7.04	8.70	5.81	6.41			O=C(Nc1cc2cc(-c3cncc(NC4CCNCC4)n3)ccc2cn1)C1CCC(F)(F)CC1 [Compound 108, 4,4-Difluoro-N-(6-(6-(piperidin-4-ylamino)pyrazin-2-yl)isoquinolin-3-yl) cyclohexane-1-carboxamide]	5.47				
< 5.00	< 5.00	< 5.00	5.05	< 5.00			CN1CCN(c2cc(C(=O)Nc3cc4cc(-c5cncc(Cl)c5)ccc4cn3)ccn2)CC1 [Compound 25, N-(6-(5-Chloropyridin-3-yl)isoquinolin-3-yl)-2-(4-methylpiperazin-1-yl) isonicotinamide]	< 5.00	8.9	44.8		4.6
